Source: patent US7220744B2, “Monocyclic substituted phenyl methanones” (Hoffman-La Roche Inc., priority 2005, dated 2007)

Target: T1, mGlyT-1b (Mus musculus, UniProt P28571)
T1 construct: host or cells: Flp-in-CHO cells (vendor and catalogue number are those of the host cell line)
T1 sequence (P28571 1-651 isoform P28571-2): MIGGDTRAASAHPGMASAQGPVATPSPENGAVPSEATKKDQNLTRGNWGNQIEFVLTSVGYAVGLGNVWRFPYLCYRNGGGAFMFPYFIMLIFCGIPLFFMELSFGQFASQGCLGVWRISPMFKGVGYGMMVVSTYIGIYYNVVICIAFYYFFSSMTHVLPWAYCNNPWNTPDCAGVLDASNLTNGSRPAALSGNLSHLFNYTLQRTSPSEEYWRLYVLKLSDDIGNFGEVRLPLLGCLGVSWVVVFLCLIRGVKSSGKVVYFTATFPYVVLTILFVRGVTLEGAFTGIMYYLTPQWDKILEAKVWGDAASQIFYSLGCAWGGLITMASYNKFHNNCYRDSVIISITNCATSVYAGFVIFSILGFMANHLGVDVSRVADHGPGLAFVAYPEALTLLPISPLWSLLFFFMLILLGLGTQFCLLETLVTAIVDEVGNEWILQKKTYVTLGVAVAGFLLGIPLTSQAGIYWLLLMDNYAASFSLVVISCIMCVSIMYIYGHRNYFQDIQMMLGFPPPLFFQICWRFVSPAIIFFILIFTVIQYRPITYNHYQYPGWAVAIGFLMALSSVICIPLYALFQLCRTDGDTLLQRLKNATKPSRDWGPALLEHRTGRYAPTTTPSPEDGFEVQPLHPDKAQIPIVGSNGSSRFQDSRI
Test: Glycine Uptake Inhibition Assay (mGlyT-1b)
Type: cell-based
Settings: inhibition of [3H]-glycine uptake in Flp-in-CHO cells transfected with mGlyT-1b cDNA; 20 min preincubation at 22° C.; read-out: IC50 (μM) at GlyT-1
Procedure: DMEM complete medium: Nutrient mixture F-12 (Gibco Life-technologies), fetal bovine serum (FBS) 5%, (Gibco life technologies), Penicillin/Streptomycin 1% (Gibco life technologies), Hygromycin 0.6 mg/ml (Gibco life technologies), Glutamine 1 mM Gibco life technologies)
Uptake buffer (UB): 150 mM NaCl, 10 mM Hepes-Tris, pH 7.4, 1 mM CaCl2, 2.5 mM KCl, 2.5 mM MgSO4, 10 mM (+) D-glucose.
Flp-in™-CHO (Invitrogen Cat n° R758-07) cells stably transfected with mGlyT1b cDNA.
Glycine Uptake Inhibition Assay (mGlyT-1b)
On day 1 mammalian cells, (Flp-in™-CHO), transfected with mGlyT-1b cDNA, were plated at the density of 40,000 cells/well in complete F-12 medium, without hygromycin in 96-well culture plates. On day 2, the medium was aspirated and the cells were washed twice with uptake buffer (UB). The cells were then incubated for 20 min at 22° C. with either (i) no potential competitor, (ii) 10 mM non-radioactive glycine, (iii) a concentration of a potential inhibitor. A range of concentrations of the potential inhibitor was used to generate data for calculating the concentration of inhibitor resulting in 50% of the effect (e.g. IC50, the concentration of the competitor inhibiting glycine uptake of 50%). A solution was then immediately added containing [^3H]-glycine 60 nM (11–16 Ci/mmol) and 25 μM non-radioactive glycine. The plates were incubated with gentle shaking and the reaction was stopped by aspiration of the mixture and washing (three times) with ice-cold UB. The cells were lysed with scintillation liquid, shaken 3 hours and the radioactivity in the cells was counted using a scintillation counter.

SMILES	IC50 [µM]
CC(C)Sc1ccc(S(C)(=O)=O)cc1C(=O)N1CCN(c2ncc(C(F)(F)F)s2)CC1 [Example 84, (2-Isopropylsulfanyl-5-methanesulfonyl-phenyl)-[4-(5-trifluoromethyl-thiazol-2-yl)-piperazin-1-yl]-methanone]	0.076
C[C@H](Oc1ccc(S(C)(=O)=O)cc1C(=O)N1CCN(c2nnc(C(F)(F)F)s2)CC1)C(F)(F)F [Example 93, [5-Methanesulfonyl-2-((S)-2,2,2-trifluoro-1-methyl-ethoxy)-phenyl]-[4-(5-trifluoromethyl-[1,3,4]thiadiazol-2-yl)-piperazin-1-yl]-methanone]	0.075
CNS(=O)(=O)c1ccc(OC2CCCC2)c(C(=O)N2CCN(c3nc(-c4ccccc4)ns3)CC2)c1 [Example 100, 4-Cyclopentyloxy-N-methyl-3-[4-(3-phenyl-[1,2,4]thiadiazol-5-yl)-piperazine-1-carbonyl]-benzenesulfonamide]	0.055

Stronger by IC50, values ahead:

IC50 [µM]	SMILES
0.044	Cc1nc(N2CCN(C(=O)c3cc(S(C)(=O)=O)ccc3O[C@H](C)C(F)(F)F)CC2)sc1C(F)(F)F [Example 81, [5-Methanesulfonyl-2-((R)-2,2,2-trifluoro-1-methyl-ethoxy)-phenyl]-[4-(4-methyl-5-trifluoromethyl-thiazol-2-yl)-piperazin-1-yl]-methanone]
0.021	CNS(=O)(=O)c1ccc(OC2CCCC2)c(C(=O)N2CCN(c3ncc(C#N)s3)CC2)c1 [Example 99, 3-[4-(5-Cyano-thiazol-2-yl)-piperazine-1-carbonyl]-4-cyclopentyloxy-N-methyl-benzenesulfonamide]
0.026	CNS(=O)(=O)c1ccc(OC2CCCC2)c(C(=O)N2CCN(c3nnc(C(F)(F)F)s3)CC2)c1 [Example 101, 4-Cyclopentyloxy-N-methyl-3-[4-(5-trifluoromethyl-[1,3,4]thiadiazol-2-yl)-piperazine-1-carbonyl]-benzenesulfonamide]
0.006	CS(=O)(=O)c1ccc(OCC(F)(F)C(F)(F)F)c(C(=O)N2CCN(c3ncc(C(F)(F)F)s3)CC2)c1 [Example 103, [5-Methanesulfonyl-2-(2,2,3,3,3-pentafluoro-propoxy)-phenyl]-[4-(5-trifluoromethyl-thiazol-2-yl)-piperazin-1-yl]-methanone]
